# Data published in patent US20120277257A1, “Methods of Treating Diseases, Pharmaceutical Compositions, and Pharmaceutical Dosage Forms” (MYREXIS, INC., priority 2009, published 2012).
# Like-named read-outs stand apart in the source and are kept apart here.
# What was measured:
# HT-29 colon cancer = HT-29 colon cancer xenograft; format: in vivo, mice; conditions: 200 mg/kg oral, 5-days-on/2-days-off, after 3 cycles
# [1] = system: NCI-H69 small cell lung cancer; assay: NCI-H69 small cell lung cancer xenograft; format: in vivo, mice; conditions: 200 mg/kg oral, daily for 27 days
# [2] = system: MV-4-11 acute myeloid leukemia; assay: MV-4-11 acute myeloid leukemia xenograft; format: in vivo, mice; conditions: 200 mg/kg oral, daily for 21 days
# OVCAR-3 ovarian cancer = OVCAR-3 ovarian cancer xenograft; format: in vivo, mice; conditions: daily for 35 days
# [3] = system: BT-474 HER2+ breast cancer; assay: BT-474 HER2+ breast cancer xenograft; format: in vivo, mice; conditions: 200 mg/kg oral, daily for 70 days
# Colo205 colon cancer = Colo205 colon cancer xenograft; format: in vivo, mice; conditions: daily for 21 days
# OPM-2 multiple myeloma = OPM-2 multiple myeloma xenograft; format: in vivo, mice; conditions: 200 mg/kg oral, daily for 21 days, p = 0.34
# K-562 erythroleukemia = K-562 erythroleukemia xenograft; format: in vivo, mice; conditions: daily for 18 days
# [4] = system: multiple murine xenograft models; assay: Murine xenograft models, summary across models; format: in vivo, mice
# in vivo = conditions: female, Hsd:athymic nude-Foxn1^nu, mouse, po
# Method: The efficacy of Compound 1 was compared to that of SNX-5422 (Serenex, Pfizer, Inc.) on the growth of NCI-N87 (Her2+) human gastric cancer cells as a xenograft in athymic nude mice model. Animals were dosed with either 200 mg/kg of Compound 1 on days 1 through 21 or 40 mg/kg of SNX-5422 thrice weekly for three weeks. Tumor volumes and body weights were determined from Days 1 to 39.
# Five million NCI-N87 cells were implanted subcutaneously in the right flank of female nude mice (Hsd:athymic nude-Foxn1^nu). When the median tumor volume was approximately 123 mm^3, mice were randomized into three cohorts of ten animals. One cohort was dosed orally with vehicle, one cohort was dosed orally with Compound 1 (200 mg/kg) formulated in vehicle, and one cohort was dosed orally with SNX-5422 (40 mg/kg) formulated in dimethylacetamide/polyethylene glycol 300. Vehicle and Compound 1 were administered on days 1-21 and SNX-5422 was administered thrice weekly on Days 1, 3, 5, 8, 10, 12, 15, 17 and 19. The mice were observed daily for mortality and signs of toxicity.
# [5] = Plasma pharmacokinetics in N-87 tumor-bearing nude mice; format: in vivo; conditions: mouse, 200 mg/kg single dose, median values (n = 6)
# Method: Xenografted mice bearing N-87 tumors (median volume ˜425 mm^3) were given a single oral dose of Compound 1 (200 mg/kg). Blood, tumor and liver samples (n=6) were collected at 0.25, 0.5, 1, 2, 4, 8, 12, 24, 36 and 48 h post-dose and used to determine Compound 1 concentrations in the plasma and Hsp70 RNA levels in tumor and liver samples (See FIG. 6). Hsp70 RNA levels were determined by qRT-PCR.
# [6] = Oral pharmacokinetics in female Sprague Dawley rats, single dose versus two doses; format: in vivo; conditions: for Cmax / AUC(0-t) / concentration at 24 h: female, Sprague Dawley, rat, plasma; for AUC(0-t): read-out: AUC(0-24); for concentration at 24 h: read-out: C24hr
# Method: Female Sprague Dawley rats (n=4 or 5) were dosed orally once with 50 mg/kg (See FIG. 9A) or twice with 25 mg/kg (See FIG. 9B) of Compound 1. Pharmacokinetic parameters are outlined in Table 4 below. […] Effective plasma concentrations of Compound 1 were maintained with twice a day dosing.
# [7] = system: MIA PaCa-2 pancreatic cancer; assay: MIA PaCa-2 pancreatic cancer xenograft
# [8] = 25 mg/kg oral, two doses 12 h apart
smiles,measurement,setting,value
"C[C@H](O)C(=O)N1CCC(CCn2c(Sc3cc4c(cc3Br)OCO4)nc3c(N)ncnc32)CC1 [Compound 1, (2S)-1-[4-(2-{6-amino-8-[(6-bromo-1,3-benzodioxol-5-yl)thio]-9H-purin-9-yl}ethyl)piperidin-1-yl]-1-oxopropan-2-ol]",TGI (tumor growth inhibition),HT-29 colon cancer,68% TGI after 3 cycles
same,"time to tumor volume 1,500 mm^3",[1]; p = 0.01,"Extended time to 1,500 mm^3"
same,"treated mice with tumors <1,500 mm^3",[1]; compared to 2/9 for vehicle arm,(p = 0.01); 8/10 treated mice
same,tumor regression,[2],50% regression
same,TGI (tumor growth inhibition),OVCAR-3 ovarian cancer; 150 mg/kg oral,84%
same,TGI (tumor growth inhibition),OVCAR-3 ovarian cancer; 200 mg/kg oral,97%
same,tumor regression,[3],17% regression
same,TGI (tumor growth inhibition),"Colo205 colon cancer; 150 mg/kg oral, p = 0.3",72% TGI (p = 0.3) 150 mg/kg;
same,TGI (tumor growth inhibition),"Colo205 colon cancer; 200 mg/kg oral, p = 0.03",87% TGI (p = 0.03) 200 mg/kg
same,TGI (tumor growth inhibition),OPM-2 multiple myeloma,71% TGI (p = 0.34)
same,TGI (tumor growth inhibition),"K-562 erythroleukemia; 150 mg/kg oral, p = 0.14","82% TGI (p = 0.14) 150 mg/kg,"
same,TGI (tumor growth inhibition),"K-562 erythroleukemia; 200 mg/kg oral, p = 0.05",97% TGI (p = 0.05)
same,"tumor regression, maximum over models","[4]; 200 mg/kg oral, various xenograft models",up to 50%
same,weight loss of animals,[4]; xenografted mice dosed orally with Compound 1,no significant weight loss
same,MTD,in vivo,200 mg/kg
same,Cmax,[5]; oral,21800 ng/mL
same,AUC(0-t),"[5]; oral, read-out: AUC(0-24)",136000 ng·h/mL
same,Tmax,[5]; po,4 h
same,half-life,[5]; po,4.8 h
same,Cmax,[6]; [8],1110 ng/mL
same,AUC(0-t),[6]; [8],5120 ng·h/mL
same,concentration at 24 h,[6]; [8],46.7 ng/mL
same,Cmax,"[6]; 50 mg/kg oral, single dose",2120 ng/mL
same,AUC(0-t),"[6]; 50 mg/kg oral, single dose",5840 ng·h/mL
same,concentration at 24 h,"[6]; 50 mg/kg oral, single dose",1.5 ng/mL
same,plasma concentration at 24 h with BID dosing versus single dose,[6]; oral,significantly higher
same,TGI (tumor growth inhibition),"[7]; 150 mg/kg oral, daily for 15 days, Day 15",67%
same,TGI (tumor growth inhibition),"[7]; 150 mg/kg oral, daily for 21 days (Table 1)",67%
same,TGI (tumor growth inhibition),"[7]; 200 mg/kg oral, daily for 15 days, Day 15",95%
same,TGI (tumor growth inhibition),"[7]; 200 mg/kg oral, daily for 21 days (Table 1)",95%
